“And” between values parts separate entries of the source, which are not always exact repeats. Equal entries are not always repeated. Where two headings read alike, the source gives them in different places. Positions of bridges follow the written chain, without caps; N, C: chain ends. Non-standard residues stand in square brackets, D forms with d. Residues, ends and D or L forms follow the SMILES beside them. *: point of attachment. Phe(3,4,5-F3) = N[C@@H](Cc1cc(F)c(F)c(F)c1)C(=O)O; Myristoyl = CCCCCCCCCCCCCC(=O)*; Nle = CCCC[C@H](N)C(=O)O; Aib = CC(C)(N)C(=O)O
How the values were obtained:
human apelin receptor [1] = target: T1, human apelin receptor (Homo sapiens, UniProt P35414); test: Competition binding in homogenate of human left ventricle (HLV)
T1 sequence (P35414 1-380): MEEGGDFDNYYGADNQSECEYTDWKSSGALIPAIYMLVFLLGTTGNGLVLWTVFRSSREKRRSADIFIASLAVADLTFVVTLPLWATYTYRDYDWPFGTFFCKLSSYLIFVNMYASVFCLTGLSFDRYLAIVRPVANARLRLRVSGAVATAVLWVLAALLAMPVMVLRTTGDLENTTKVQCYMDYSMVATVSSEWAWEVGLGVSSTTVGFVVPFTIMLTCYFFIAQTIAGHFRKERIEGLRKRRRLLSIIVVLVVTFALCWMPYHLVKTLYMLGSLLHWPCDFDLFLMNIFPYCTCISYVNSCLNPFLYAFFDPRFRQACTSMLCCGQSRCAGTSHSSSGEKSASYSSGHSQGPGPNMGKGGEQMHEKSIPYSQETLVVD
Procedure: Equilibrium was broken by centrifugation (20,000 g for 10 min, 4° C.). Pellets were washed with Tris-HCl buffer (50 mmol/L, pH 7.4, 4° C.), re-centrifuged and bound radioactivity in the final pellets counted. Data from triplicate experiments were analysed using the iterative non-linear curve fitting programs EBDA and LIGAND (KELL package, Biosoft, UK) or GraphPad Prism 6 to derive values of affinity (expressed as either the equilibrium dissociation constant KD or the negative log10 of the dissociation constant, pKi±sem) and receptor density (BMAX±sem in fmoles bound per mg protein).

human apelin receptor [2] = target: T1, human apelin receptor; test: Cerep radioligand binding assay on CHO-K1 cells expressing the human apelin receptor; design: host or cells: CHO-K1
Procedure: Binding assays were performed by Cerep (Celle L'Evescault, France) on Chinese Hamster Ovary (CHO-K1) cells expressing the human apelin receptor. […] The results were expressed as a percent of control specific binding ((measured specific binding/control specific binding)×100) and as a percent inhibition of control specific binding (100−((measured specific binding/control specific binding)×100)) obtained in the presence of the test compounds. […] The inhibition constants (Ki) were calculated using the Cheng Prusoff equation (Ki=IC50/(1+(L/KD)), where L=concentration of radioligand in the assay, and KD=equilibrium dissociation constant of the radioligand for the receptor).

glioblastoma = conditions: ref. [60], cited from earlier work; for anti-tumor / anti-cancer effects in glioblastoma: models of glioblastoma
human apelin receptor [3] = target: T1, human apelin receptor; test: DRx β-arrestin assay (PathHunter eXpress AGTRL1 CHO-K1); assay type: cell-based; design: host or cells: CHO-K1; conditions: for Kb: DRx β-Arrestin pA2; for bias between cAMP and β-arrestin pathway inhibition: comparison of β-arrestin and cAMP pA2 of Table 3
Procedure: (§1) cAMP (cAMP Hunter™ eXpress AGTRL1 CHO-K1 GPCR Assay, DiscoverX Corporation, Ltd. Birmingham, UK) and β-arrestin (PathHunter® eXpress AGTRL1 CHO-K1 β-Arrestin GPCR Assay, DiscoverX Corporation, Ltd. Birmingham, UK) assays were performed according to the manufacturer's instructions. The cAMP assay measures the canonical signalling pathway through the G-protein. The β-arrestin assay measures the alternative signalling pathway and receptor internalisation.
For recruitment of β-arrestin, CHO-K1 cells artificially expressing the human apelin receptor were seeded in Cell Plating medium into 96-well plates and incubated for 48 hours at 37° C. in 5% CO2. Concentration response curves were constructed to test peptides (1 pmol/L-30 μmol/L) which were diluted in Cell Plating medium and added to the cells for 90 minutes at 37° C. If no response was obtained then test peptides were investigated as antagonists. […] Detection reagents were then added for a 2-hour incubation at room temperature. […] If no agonist response was obtained, test compounds were investigated for antagonist activity by repeating [Pyr]apelin-13 concentration response curves in the absence and presence of a single concentration (1-30 μmol/L of test peptide). Data were analysed as described for the cAMP assay using the Gaddum/Schild EC50 function in GraphPad Prism 6 to determine values of pA2.

human forearm = test: Human forearm studies; assay type: in vivo
human apelin receptor [4] = target: T1, human apelin receptor; test: DRx cAMP assay (cAMP Hunter eXpress AGTRL1 CHO-K1), forskolin-induced cAMP accumulation; assay type: cell-based; design: host or cells: CHO-K1; conditions: for Kb: DRx cAMP pA2, antagonism of [Pyr1]apelin-13 inhibition of forskolin-stimulated cAMP; for DRx cAMP pA2: antagonism of [Pyr1]apelin-13 inhibition of forskolin-stimulated cAMP
Procedure: Antagonist activity at the apelin receptor was measured in two assays.
as §1
Cells were then incubated with a mixture of Lysis Buffer, cAMP Buffer D and Detection Reagents for 1 hour at room temperature, followed by a 3 hour incubation with cAMP Reagent A at room temperature. Chemiluminescence was read using the LumiLITE™ Microplate Reader (DiscoverX). Concentration-response data for agonists, measured in relative light units (RLU), were analysed using a 4 parameter logistic equation in GraphPad Prism 6 (La Jolla, CA, USA) to determine values of potency expressed as the pD2 value (negative logo of the EC50 (where EC50 is the concentration producing half maximal response)), and maximum response (EMAX). Mean data from replicate experiments were normalised as percentage inhibition of forskolin-stimulated cAMP production.

[5] = test system: endothelium-denuded saphenous vein; conditions: human tissue, ref. [15]; cited from earlier work
human apelin receptor [6] = target: T1, human apelin receptor; conditions: human cardiac tissue, ref. [15]; cited from earlier work
[7] = [Glp65,Nle75,Tyr77][125I]apelin-13, read-out: Ki (binding affinity at the apelin receptor, Cerep)

Compound | anti-tumor / anti-cancer effects in glioblastoma (glioblastoma) | DRx β-Arrestin pA2 (human apelin receptor [3]) | Kb (human apelin receptor [3]) | Ki (human apelin receptor [2]; [7]) [nM] | Kb (human apelin receptor [4]) | DRx cAMP pA2 (human apelin receptor [4]) | bias between cAMP and β-arrestin pathway inhibition (human apelin receptor [3]) | also measured
CC(C)C[C@@H]1NC(=O)[C@H](CCCNC(=N)N)NC(=O)[C@@H]2CCCN2C(=O)[C@H](CCCNC(=N)N)NC(=O)[C@@H](NC(=O)[C@H](Cc2c[nH]cn2)NC(=O)[C@H](CCCCN)NC(=O)[C@@H]2CSSC[C@H](N)C(=O)N[C@@H](CCCNC(=N)N)C(=O)N3CCC[C@H]3C(=O)N[C@@H](CCCNC(=N)N)C(=O)N[C@@H](CC(C)C)C(=O)N2)CSSC[C@@H](C(=O)O)NC1=O [MM54, cyclo(1-6)CRPRLC-KH-cyclo(9-14)CRPRLC] (H-CRPRLCKHCRPRLC-OH; disulfide 1-6, 9-14; N-terminus and C-terminus assumed) | anti-tumor properties | 6.63 | 117 nM and 234 nM | – | – | – | – | Ki (human apelin receptor [1]; HLV pKi): 275 nM and 355 nM; Ki (human apelin receptor [2]; Ki (binding affinity at the apelin receptor, Cerep), [Glp65,Nle75,Tyr77][125I]apelin-13): 82 nM; combination with the anti-cancer compound tomozolomide (glioblastoma; model of glioblastoma): synergistic properties; functional activity in human forearm studies (human forearm): functional agonist activity indicated by vasodilation
CCCC[C@H](NC(=O)[C@H](CCCNC(=N)N)NC(=O)C(C)(C)NC(=O)[C@H](CCCNC(=N)N)NC(=O)[C@H](CS)NC(=O)[C@H](Cc1c[nH]cn1)NC(=O)[C@H](CCCCN)NC(=O)[C@H](CS)NC(=O)[C@H](CCCC)NC(=O)[C@H](CCCNC(=N)N)NC(=O)[C@@H]1CCCN1C(=O)[C@H](CCCNC(=N)N)NC(=O)[C@@H](N)CS)C(=O)N[C@@H](Cc1cc(F)c(F)c(F)c1)C(=O)O [MM193, CRPR-Nle-CKHCR-Aib-R-Nle-(3,4,5-trifluorophenylalanine)] (H-CRPR[Nle]CKHCR[Aib]R[Nle][Phe(3,4,5-F3)]-OH) | significant anti-cancer effects | 7.68 | 20.9 nM | 19 | 42.7 nM and 77.6 nM | 7.37 | – | Ki (human apelin receptor [1]; read-out: HLV pKi (converted)): 759 nM; antagonism of [pyr1]apelin-13 inhibition of forskolin stimulated cAMP accumulation (human apelin receptor [4]; 1 μM, FIG. 1b): antagonised by addition of MM193 in a competitive manner; antagonism of [pyr1]apelin-13 mediated β-arrestin recruitment (human apelin receptor [3]; 1 μM, FIG. 1a): antagonised by addition of MM193 in a competitive manner; DRx β-Arrestin pA2 (human apelin receptor [3]; cho-k1 cells, 90 min): pA2 = 7.68
CCCCCCCCCCCCCC(=O)N[C@@H](CS)C(=O)N[C@@H](CCCNC(=N)N)C(=O)N1CCC[C@H]1C(=O)N[C@@H](CCCNC(=N)N)C(=O)N[C@@H](CCCC)C(=O)N[C@@H](CS)C(=O)N[C@@H](CCCCN)C(=O)N[C@@H](Cc1c[nH]cn1)C(=O)N[C@@H](CS)C(=O)N[C@@H](CCCNC(=N)N)C(=O)NC(C)(C)C(=O)N[C@@H](CCCNC(=N)N)C(=O)N[C@@H](CCCC)C(=O)N[C@@H](Cc1cc(F)c(F)c(F)c1)C(=O)O [MM300, Myristoyl-CRPR-Nle-CKHCR-Aib-R-Nle-(3,4,5-trifluorophenylalanine)] (Myristoyl-CRPR[Nle]CKHCR[Aib]R[Nle][Phe(3,4,5-F3)]-OH; C-terminus assumed) | – | 8.96 | 1.1 nM and 3.16 nM | 13 | – | 9.66 | bias towards either C-AMP | –
CCCC[C@H](NC(=O)[C@H](CCCNC(=N)N)NC(=O)C(C)(C)NC(=O)[C@H](CCCNC(=N)N)NC(=O)[C@H](CS)NC(=O)[C@H](CCCCN)NC(=O)[C@H](Cc1c[nH]cn1)NC(=O)[C@H](CS)NC(=O)[C@H](CCCC)NC(=O)[C@H](CCCNC(=N)N)NC(=O)[C@@H]1CCCN1C(=O)[C@H](CCCNC(=N)N)NC(=O)[C@@H](N)CS)C(=O)N[C@@H](Cc1cc(F)c(F)c(F)c1)C(=O)O [MM302, CRPR-Nle-CHKCR-Aib-R-Nle-(3,4,5-trifluorophenylalanine)] (H-CRPR[Nle]CHKCR[Aib]R[Nle][Phe(3,4,5-F3)]-OH; N-terminus and C-terminus assumed) | – | – | 2.69 nM and 2.29 nM | 17 | 20 nM and 55 nM | – | almost a log unit of bias towards inhibition of the β-arrestin pathway | –
Apelin-13(F13A): apelin-13 analogue reported as a functional antagonist, may act as an apelin receptor agonist in vitro | – | – | – | – | – | – | – | constriction of endothelium-denuded saphenous vein [5]: effectively constricts; competition for binding with [125I]-(Pyr1)apelin-13 in the left ventricle (human apelin receptor [6]): competes for binding
